Experimental data reported in US11667661B2, “Benzimidazole derivatives, preparation method thereof and use thereof as anti-cancer agent comprising the same” (BIOMETRIX TECHNOLOGY INC, priority 2020, dated 2023).
Entries after “also recorded” stand apart in the source; their conditions may differ.

Legend:
[1] = tested on: human lung cancer cell line A549, cervical cancer cell line Hela, colorectal cancer cell line HT-29; assay: Cancer cell line growth inhibition test (WST-8 cell viability, 72 h); assay type: cell-based; details: for Cancer Cell line growth inhibition test: relative evaluation compared to doxorubicin
Experimental: A human lung cancer cell line A549, a cervical cancer cell line Hela, and a colorectal cancer cell line HT-29 were adopted from the Korea Cell Line Bank (KCLB, Seoul, Korea) and cultured in a culture medium.
In a humidified cell culture incubator containing 5% CO2; at 37° C. using a DMEM and a 10% culture flask, fetal bovine serum (FBS), 0.1 mM MEM non-essential amino acid (NEAA), 2 mM L-glutamine, and 1% penicillin-streptomycin were trypsinized every 2 to 3 days according to the instructions provided by the KCLB to subculture the cells. The culture was cultured until reached 80% to 90% of confluence, and the cells were successively transferred to a culture flask for a cancer cell line growth inhibition test.
A cancer cell line, a human lung cancer cell line A549, a cervical cancer cell line Hela, and a colorectal cancer cell line HT-29 to be tested were seeded in a 96-well plate at about 10,000 cells per well.
After incubation, the medium was removed and the cell viability in each well was measured using a WST-8 cell viability assay kit (Quanti-Max™, BIOMAX) and according to a procedure instructed by a manufacturer.
The analysis used a principle that dehydrogenase of living cells decomposed tetrazolium salt to generate formazan, and through this, the living cells were quantitatively evaluated.
Reduced formazan salt was soluble in a cell culture medium and an amount of formazan was directly proportional to the number of living cells (Slater, T. et al. (1963) Biochem. Biophys. Acta 77:383. van de Loosdrecht, A. A., et al. J. Immunol. Methods 174: 311-320, 1994. Alley, M. C., et al. Cancer Res. 48: 589-601, 1988.).

[2] = tested on: normal lung cell line MRC-5 and normal colon CCD-18Co cell line; assay: Toxicity test in normal cell line (WST-8 cell viability, 72 h); assay type: cell-based; details: for Normal cell line toxicity test: relative evaluation compared to doxorubicin

Substance | Cancer Cell line growth inhibition test [1] | Normal cell line toxicity test [2] | toxicity to the normal cell lines ([2]; FIG. 2, MRC-5, CCD-18Co, 0-100 μM, 72 hours, compared to albendazole, fenbendazole, and doxorubicin) | cancer cell line growth inhibition efficiency ([1]; FIG. 1, A549, Hela, HT-29, 0-100 μM, 72 hours, versus albendazole, fenbendazole, doxorubicin)
Fenbendazole-1,2,3,4-Tetra-β-D-fructose [FB-2] | AA (AA represents equal (1 to 2 times)) | – | – | –
Fenbendazole-1,2,3,4-Tetra-β-D-glucose [FB-1] | AA (AA represents equal (1 to 2 times)) | – | – | –
albendazole-1,2,3,4-Tetra-β-D-fructose [AL-2] | AA (AA represents equal (1 to 2 times)) | AA (AA represents little toxicity ( 1/10 times)) | – | –
albendazole-1,2,3,4-Tetra-β-D-glucose [AL-1] | AA (AA represents equal (1 to 2 times)) | AA (AA represents little toxicity ( 1/10 times)) | very weak | most excellent; also recorded: very excellent
